In patent publication US20170190671A1, “BIS(ARYL)CATECHOL DERIVATIVES AS HERBICIDES” (E I DU PONT DE NEMOURS AND COMPANY, priority 2014, published 2017):

Legend:
Format in all cases: in vivo
[1] = system: corn (Zea mays); test: Test C postemergence; settings: Zea mays, post-emergence, 336 h, Postemergence, scale 0 to 100
Outline: (§1)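 After preemergence treatment of seeds in loam-sand soil or foliar treatment at the 1- to 4-leaf stage of plants in peat/vermiculite medium, pots were kept 13-15 days in the greenhouse. Each was then scored visually, 0 meaning no effect and 100 complete control.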

[2] = system: velvetleaf (Abutilon theophrasti); test: Test C postemergence; settings: Abutilon theophrasti, post-emergence, Postemergence, scale 0 to 100, read-out: Plant response rating, Velvetleaf
Outline: as §1

[3] = system: johnsongrass (Sorghum halepense); test: Test C postemergence; settings: Sorghum halepense, post-emergence, 336 h, Postemergence, scale 0 to 100, read-out: Plant response rating, Johnsongrass
Outline: as §1

[4] = system: oilseed rape (Brassica napus); test: Test C postemergence; settings: Brassica napus, post-emergence, Postemergence, scale 0 to 100, read-out: Plant response rating, Oilseed Rape
Outline: as §1

[5] = system: giant foxtail (Setaria faberii); test: Test C postemergence; settings: Setaria faberi, post-emergence, 336 h, Postemergence, scale 0 to 100, read-out: Plant response rating, Foxtail, Giant
Outline: as §1

[6] = system: ragweed (common ragweed, Ambrosia elatior); test: Test C postemergence; settings: Ambrosia artemisiifolia, post-emergence, 336 h, Postemergence, scale 0 to 100, read-out: Plant response rating, Ragweed
Outline: as §1

[7] = system: large (Lg) crabgrass (Digitaria sanguinalis); test: Test C postemergence; settings: Digitaria sanguinalis, post-emergence, 336 h, Postemergence, scale 0 to 100, read-out: Plant response rating, Crabgrass, Large
Outline: as §1

[8] = system: chickweed (common chickweed, Stellaria media); test: Test C postemergence; settings: Stellaria media, post-emergence, Postemergence, scale 0 to 100, read-out: Plant response rating, Chickweed
Outline: as §1

[9] = system: Italian ryegrass (Lolium multiflorum); test: Test C postemergence; settings: Lolium multiflorum, post-emergence, 336 h, Postemergence, scale 0 to 100, read-out: Plant response rating, Ryegrass, Italian
Outline: as §1

[10] = system: winter wheat (Triticum aestivum); test: Test C postemergence; settings: Triticum aestivum, post-emergence, 336 h, Postemergence, scale 0 to 100, read-out: Plant response rating, Wheat
Outline: as §1

[11] = system: galium (catchweed bedstraw, Galium aparine); test: Test C postemergence; settings: Galium, post-emergence, 336 h, Postemergence, scale 0 to 100, read-out: Plant response rating, Galium
Outline: as §1

[12] = system: blackgrass (Alopecurus myosuroides); test: Test C postemergence; settings: Alopecurus myosuroides, post-emergence, 336 h, Postemergence, scale 0 to 100, read-out: Plant response rating, Blackgrass
Outline: as §1

[13] = system: yellow nutsedge (Cyperus esculentus); test: Test C postemergence; settings: Cyperus, post-emergence, 336 h, Postemergence, scale 0 to 100, read-out: Plant response rating, Nutsedge, Yellow
Outline: as §1

[14] = system: barnyardgrass (Echinochloa crus-galli); test: Test C postemergence; settings: Echinochloa crus-galli, post-emergence, Postemergence, scale 0 to 100, read-out: Plant response rating, Barnyardgrass
Outline: as §1

[15] = system: morningglory (Ipomoea coccinea); test: Test C postemergence; settings: Ipomoea, post-emergence, 336 h, Postemergence, scale 0 to 100, read-out: Plant response rating, Morningglory
Outline: as §1

[16] = system: lambsquarters (Chenopodium album); test: Test C postemergence; settings: Chenopodium album, post-emergence, 336 h, Postemergence, scale 0 to 100, read-out: Plant response rating, Lambsquarters
Outline: as §1

[17] = system: soybean (Glycine max); test: Test C postemergence; settings: Glycine max, post-emergence, Postemergence, scale 0 to 100, read-out: Plant response rating, Soybean
Outline: as §1

[18] = system: pigweed (Amaranthus retroflexus); test: Test C postemergence; settings: Amaranthus retroflexus, post-emergence, 336 h, Postemergence, scale 0 to 100, read-out: Plant response rating, Pigweed
Outline: as §1

[19] = system: oilseed rape (Brassica napus); test: Test C preemergence; settings: Brassica napus, pre-emergence, scale 0 to 100, read-out: Plant response rating, Oilseed Rape
Outline: as §1

[20] = system: giant foxtail (Setaria faberii); test: Test C preemergence; settings: Setaria faberi, pre-emergence, 336 h, scale 0 to 100, read-out: Plant response rating, Foxtail, Giant
Outline: as §1

[21] = system: large (Lg) crabgrass (Digitaria sanguinalis); test: Test C preemergence; settings: Digitaria sanguinalis, pre-emergence, 336 h, scale 0 to 100, read-out: Plant response rating, Crabgrass, Large
Outline: as §1

[22] = system: winter wheat (Triticum aestivum); test: Test C preemergence; settings: Triticum aestivum, pre-emergence, 336 h, scale 0 to 100, read-out: Plant response rating, Wheat
Outline: as §1

N#Cc1cccc(Oc2ncc(Cl)cn2)c1Oc1cnc(Cl)cn1 [Compound 32, 2-[(5-chloro-2-pyrazinyl)oxy]-3-[(5-chloro-2-pyrimidinyl)oxy]benzonitrile]
Corn plant response rating (crop injury, 0 = no effect, 100 = complete kill) at 16 g/ha ([1]; 16 g ai/ha): 20%
Corn plant response rating (crop injury, 0 = no effect, 100 = complete kill) at 31 g/ha ([1]; 31 g ai/ha): 20%
Corn plant response rating (crop injury, 0 = no effect, 100 = complete kill) at 62 g/ha ([1]; 62 g ai/ha): 25%
Corn plant response rating (crop injury, 0 = no effect, 100 = complete kill) at 125 g/ha ([1]; 125 g ai/ha): 25%
pest or weed control at 31 g/ha ([2]; 31 g ai/ha): 55%
pest or weed control at 62 g/ha ([2]; 62 g ai/ha): 60%
pest or weed control at 125 g/ha ([2]; 125 g ai/ha): 75%
pest or weed control at 16 g/ha ([3]; 16 g ai/ha): 10%
pest or weed control at 31 g/ha ([3]; 31 g ai/ha): 10%
pest or weed control at 62 g/ha ([3]; 62 g ai/ha): 10%
pest or weed control at 125 g/ha ([3]; 125 g ai/ha): 40%
plant injury at 31 g/ha ([4]; 31 g ai/ha): 80%
plant injury at 62 g/ha ([4]; 62 g ai/ha): 85%
plant injury at 125 g/ha ([4]; 125 g ai/ha): 85%
pest or weed control at 16 g/ha ([5]; 16 g ai/ha): 20%
pest or weed control at 31 g/ha ([5]; 31 g ai/ha): 20%
pest or weed control at 62 g/ha ([5]; 62 g ai/ha): 15%
pest or weed control at 125 g/ha ([5]; 125 g ai/ha): 20%
pest or weed control at 31 g/ha ([6]; 31 g ai/ha): 55%
pest or weed control at 62 g/ha ([6]; 62 g ai/ha): 80%
pest or weed control at 125 g/ha ([6]; 125 g ai/ha): 80%
pest or weed control at 16 g/ha ([7]; 16 g ai/ha): 5%
pest or weed control at 31 g/ha ([7]; 31 g ai/ha): 10%
pest or weed control at 62 g/ha ([7]; 62 g ai/ha): 20%
pest or weed control at 125 g/ha ([7]; 125 g ai/ha): 30%
pest or weed control at 16 g/ha ([8]; 16 g ai/ha): 70%
pest or weed control at 31 g/ha ([8]; 31 g ai/ha): 80%
pest or weed control at 62 g/ha ([8]; 62 g ai/ha): 80%
pest or weed control at 125 g/ha ([8]; 125 g ai/ha): 85%
pest or weed control at 31 g/ha ([9]; 31 g ai/ha): 5%
pest or weed control at 62 g/ha ([9]; 62 g ai/ha): 10%
pest or weed control at 125 g/ha ([9]; 125 g ai/ha): 30%
plant injury at 31 g/ha ([10]; 31 g ai/ha): 0%
plant injury at 62 g/ha ([10]; 62 g ai/ha): 0%
plant injury at 125 g/ha ([10]; 125 g ai/ha): 0%
pest or weed control at 16 g/ha ([11]; 16 g ai/ha): 80%
pest or weed control at 31 g/ha ([11]; 31 g ai/ha): 80%
pest or weed control at 62 g/ha ([11]; 62 g ai/ha): 95%
pest or weed control at 125 g/ha ([11]; 125 g ai/ha): 95%
pest or weed control at 16 g/ha ([12]; 16 g ai/ha): 5%
pest or weed control at 31 g/ha ([12]; 31 g ai/ha): 5%
pest or weed control at 62 g/ha ([12]; 62 g ai/ha): 5%
pest or weed control at 125 g/ha ([12]; 125 g ai/ha): 10%
pest or weed control at 31 g/ha ([13]; 31 g ai/ha): 20%
pest or weed control at 62 g/ha ([13]; 62 g ai/ha): 20%
pest or weed control at 125 g/ha ([13]; 125 g ai/ha): 20%
pest or weed control at 16 g/ha ([14]; 16 g ai/ha): 10%
pest or weed control at 31 g/ha ([14]; 31 g ai/ha): 20%
pest or weed control at 62 g/ha ([14]; 62 g ai/ha): 20%
pest or weed control at 125 g/ha ([14]; 125 g ai/ha): 30%
pest or weed control at 31 g/ha ([15]; 31 g ai/ha): 90%
pest or weed control at 62 g/ha ([15]; 62 g ai/ha): 95%
pest or weed control at 125 g/ha ([15]; 125 g ai/ha): 95%
pest or weed control at 16 g/ha ([16]; 16 g ai/ha): 80%
pest or weed control at 31 g/ha ([16]; 31 g ai/ha): 90%
pest or weed control at 62 g/ha ([16]; 62 g ai/ha): 85%
pest or weed control at 125 g/ha ([16]; 125 g ai/ha): 90%
plant injury at 31 g/ha ([17]; 31 g ai/ha): 65%
plant injury at 62 g/ha ([17]; 62 g ai/ha): 85%
plant injury at 125 g/ha ([17]; 125 g ai/ha): 85%
pest or weed control at 31 g/ha ([18]; 31 g ai/ha): 85%
pest or weed control at 62 g/ha ([18]; 62 g ai/ha): 90%
pest or weed control at 125 g/ha ([18]; 125 g ai/ha): 95%
plant injury at 31 g/ha ([19]; 31 g ai/ha, preemergence): 95%
plant injury at 62 g/ha ([19]; 62 g ai/ha, preemergence): 95%
plant injury at 125 g/ha ([19]; 125 g ai/ha, preemergence): 95%
plant injury at 16 g/ha ([19]; Preemergence, 16 g ai/ha): 10%
pest or weed control at 31 g/ha ([20]; 31 g ai/ha, preemergence): 98%
pest or weed control at 62 g/ha ([20]; 62 g ai/ha, preemergence): 100%
pest or weed control at 125 g/ha ([20]; 125 g ai/ha, preemergence): 100%
pest or weed control at 16 g/ha ([20]; Preemergence, 16 g ai/ha): 85%
pest or weed control at 31 g/ha ([21]; 31 g ai/ha, preemergence): 98%
pest or weed control at 62 g/ha ([21]; 62 g ai/ha, preemergence): 100%
pest or weed control at 125 g/ha ([21]; 125 g ai/ha, preemergence): 100%
pest or weed control at 16 g/ha ([21]; Preemergence, 16 g ai/ha): 98%
plant injury at 31 g/ha ([22]; 31 g ai/ha, preemergence): 0%
plant injury at 62 g/ha ([22]; 62 g ai/ha, preemergence): 0%
plant injury at 125 g/ha ([22]; 125 g ai/ha, preemergence): 5%
plant injury at 16 g/ha ([22]; Preemergence, 16 g ai/ha): 0%
